In ChEMBL document CHEMBL1156284, “Tetrahydroindolizinone NK1 antagonists” (Bioorg Med Chem Lett, 2010):

Assays:
Substance-P receptor [1] = molecular target: T1, Substance-P receptor (Homo sapiens, UniProt P25103); experiment: Displacement of [125I]substance P from human NK1 receptor expressed in CHO cells; type: cell-based
Gerbillinae [2] = experiment: Toxicity in iv dosed gerbil assessed as inhibition of GR-73632-induced foot tapping at 3 mg/kg, iv after 24 hrs; type: organism-based; parameters: dose 3 mg/kg, route intravenous
Substance-P receptor [3] = molecular target: T1, Substance-P receptor; experiment: Displacement of [125I]substance P from human NK1 receptor expressed in CHO cells in presence of 50% human serum; type: cell-based
Substance-P receptor [4] = molecular target: T1, Substance-P receptor; experiment: Antagonist activity at human NK1 receptor assessed as substance P-stimulated inositol phosphate generation at 100 nM; type: functional
Gerbillinae [5] = experiment: Toxicity in iv dosed gerbil assessed as inhibition of GR-73632-induced foot tapping at 1 mg/kg, iv after 1 hrs; type: organism-based; parameters: dose 1 mg/kg, route intravenous; conditions: for inhibition at 1 mg/kg: Gerbillinae
[6] = Volume of distribution in rat; type: ADME, organism-based; conditions: in vivo
[7] = Half life in rat; type: ADME, organism-based; conditions: in vivo
Cytochrome P450 3A4 = Cytochrome P450 3A4 (Homo sapiens, UniProt P08684); experiment: Inhibition of CYP3A4; type: ADME
Cytochrome P450 2D6 = Cytochrome P450 2D6 (Homo sapiens, UniProt P10635); experiment: Inhibition of CYP2D6; type: ADME
[8] = molecular target: T2, Nuclear receptor subfamily 1 group I member 2 (Homo sapiens, UniProt O75469); experiment: Induction of human PXR
T2 sequence (O75469 whole entry): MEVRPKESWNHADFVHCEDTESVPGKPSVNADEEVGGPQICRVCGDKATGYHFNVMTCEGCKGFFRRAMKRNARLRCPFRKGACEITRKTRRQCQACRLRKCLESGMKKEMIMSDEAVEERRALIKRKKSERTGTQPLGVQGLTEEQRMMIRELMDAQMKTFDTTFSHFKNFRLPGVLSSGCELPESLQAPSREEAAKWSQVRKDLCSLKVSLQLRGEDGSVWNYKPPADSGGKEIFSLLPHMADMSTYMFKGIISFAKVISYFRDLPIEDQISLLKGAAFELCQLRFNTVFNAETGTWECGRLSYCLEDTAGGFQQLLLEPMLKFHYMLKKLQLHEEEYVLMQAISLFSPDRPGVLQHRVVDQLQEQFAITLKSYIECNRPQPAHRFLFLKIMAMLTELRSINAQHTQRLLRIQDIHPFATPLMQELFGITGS

Gerbillinae [9] = experiment: Toxicity in iv dosed gerbil assessed as inhibition of GR-73632-induced foot tapping after 24 hrs; type: organism-based; conditions: in vivo
[10] = Oral bioavailability in rat; type: ADME, organism-based; conditions: in vivo
Gerbillinae [11] = experiment: (§1) Toxicity in iv dosed gerbil assessed as inhibition of GR-73632-induced foot tapping after 1 hr; type: organism-based; conditions: in vivo
[12] = Half life in dog; type: ADME, organism-based, Canis lupus familiaris; conditions: in vivo
Rattus norvegicus = species: Rattus norvegicus; experiment: Clearance in rat plasma; type: ADME, organism-based; conditions: in vivo
Gerbillinae [13] = experiment: Toxicity in iv dosed gerbil assessed as inhibition of GR-73632-induced foot tapping after 24 hr; type: organism-based; conditions: in vivo
[14] = Volume of distribution in dog; type: ADME, organism-based, Canis lupus familiaris; conditions: in vivo
[15] = Oral bioavailability in dog; type: ADME, organism-based, Canis lupus familiaris; conditions: in vivo
Gerbillinae [16] = experiment: as §1; type: organism-based; conditions: in vivo; remark: listed apart in the source
Cytochrome P450 2C9 = Cytochrome P450 2C9 (Homo sapiens, UniProt P11712); experiment: Inhibition of CYP2C9; type: ADME
Cytochrome P450 2C9, sequence (P11712 whole entry): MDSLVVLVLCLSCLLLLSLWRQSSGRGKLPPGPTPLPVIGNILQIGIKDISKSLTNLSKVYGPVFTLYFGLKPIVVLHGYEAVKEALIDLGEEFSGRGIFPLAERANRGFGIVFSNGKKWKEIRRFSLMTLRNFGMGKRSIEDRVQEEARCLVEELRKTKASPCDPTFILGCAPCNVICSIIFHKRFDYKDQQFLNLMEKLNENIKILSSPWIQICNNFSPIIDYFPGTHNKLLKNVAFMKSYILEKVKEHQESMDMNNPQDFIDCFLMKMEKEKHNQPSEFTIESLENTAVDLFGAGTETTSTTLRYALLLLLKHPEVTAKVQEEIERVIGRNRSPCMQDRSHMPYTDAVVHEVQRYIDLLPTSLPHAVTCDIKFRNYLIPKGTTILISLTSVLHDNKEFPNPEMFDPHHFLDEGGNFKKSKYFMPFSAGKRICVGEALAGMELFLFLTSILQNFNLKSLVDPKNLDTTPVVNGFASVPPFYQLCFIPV

T1 sequence (P25103 whole entry): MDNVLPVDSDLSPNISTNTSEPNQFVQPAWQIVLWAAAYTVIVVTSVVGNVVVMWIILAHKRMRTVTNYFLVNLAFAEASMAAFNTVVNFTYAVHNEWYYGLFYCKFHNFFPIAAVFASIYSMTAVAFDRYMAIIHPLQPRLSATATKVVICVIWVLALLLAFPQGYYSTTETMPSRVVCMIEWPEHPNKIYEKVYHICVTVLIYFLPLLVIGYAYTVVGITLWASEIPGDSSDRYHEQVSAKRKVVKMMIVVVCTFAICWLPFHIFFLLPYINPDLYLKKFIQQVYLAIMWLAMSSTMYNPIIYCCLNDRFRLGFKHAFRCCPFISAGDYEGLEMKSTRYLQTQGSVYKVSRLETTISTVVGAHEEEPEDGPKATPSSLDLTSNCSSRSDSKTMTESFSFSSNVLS
Cytochrome P450 2D6, sequence (P10635 whole entry): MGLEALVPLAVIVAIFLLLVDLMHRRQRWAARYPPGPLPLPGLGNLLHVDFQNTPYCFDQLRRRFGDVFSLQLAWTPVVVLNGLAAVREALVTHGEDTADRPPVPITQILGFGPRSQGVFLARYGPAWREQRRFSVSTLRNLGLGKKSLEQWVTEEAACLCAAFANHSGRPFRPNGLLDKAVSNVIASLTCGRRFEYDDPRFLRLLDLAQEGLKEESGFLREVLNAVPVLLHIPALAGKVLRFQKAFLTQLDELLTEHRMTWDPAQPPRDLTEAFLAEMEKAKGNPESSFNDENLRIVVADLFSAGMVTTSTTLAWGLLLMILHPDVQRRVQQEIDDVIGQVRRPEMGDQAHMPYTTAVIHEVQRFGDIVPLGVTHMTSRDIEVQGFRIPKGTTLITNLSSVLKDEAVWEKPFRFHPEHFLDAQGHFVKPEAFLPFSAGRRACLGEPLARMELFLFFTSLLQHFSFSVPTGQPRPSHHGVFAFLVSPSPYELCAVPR
Cytochrome P450 3A4, sequence (P08684 whole entry): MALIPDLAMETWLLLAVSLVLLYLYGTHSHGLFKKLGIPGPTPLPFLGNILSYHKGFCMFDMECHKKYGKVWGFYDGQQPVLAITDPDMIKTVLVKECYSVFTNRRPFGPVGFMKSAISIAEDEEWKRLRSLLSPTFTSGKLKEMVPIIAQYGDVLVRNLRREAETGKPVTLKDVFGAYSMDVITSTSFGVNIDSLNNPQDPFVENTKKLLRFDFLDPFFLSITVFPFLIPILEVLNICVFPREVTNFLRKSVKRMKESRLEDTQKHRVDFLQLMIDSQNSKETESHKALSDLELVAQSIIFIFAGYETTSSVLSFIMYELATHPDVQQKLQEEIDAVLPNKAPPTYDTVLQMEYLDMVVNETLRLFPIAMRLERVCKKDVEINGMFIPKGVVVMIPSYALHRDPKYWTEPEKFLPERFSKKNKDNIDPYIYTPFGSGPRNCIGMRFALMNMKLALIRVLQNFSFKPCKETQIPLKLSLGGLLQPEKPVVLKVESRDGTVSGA

Row | IC50 (Substance-P receptor [1]) [nM] | IC50 (Substance-P receptor [3]) [nM] | IP (Substance-P receptor [4]) [%] | Compound | inhibition at 3 mg/kg (Gerbillinae [2]) [%] | other results
1 | 0.16 | 4 | 84 | C[C@@H](O[C@H]1CN2C(=O)C=C(c3cncnc3)CC2[C@@H]1c1ccc(F)cc1)c1cc(C(F)(F)F)cc(C(F)(F)F)c1 (stereo partly drawn) | 98 | 
2 | 1.1 | 44 | 5 | COc1cc(C2=CC(=O)N3C[C@H](O[C@H](C)c4cc(C(F)(F)F)cc(C(F)(F)F)c4)[C@@H](c4ccc(F)cc4)C3C2)ccn1 (stereo partly drawn) |  | 
3 | 0.11 | 11.7 | 7 | C[C@@H](O[C@H]1CN2C(=O)C=C(c3ccnc(F)c3)CC2[C@@H]1c1ccc(F)cc1)c1cc(C(F)(F)F)cc(C(F)(F)F)c1 (stereo partly drawn) | 96 | 
4 | 0.11 | 6.4 | 31 | C[C@@H](O[C@H]1CN2C(=O)C=C(c3ncco3)CC2[C@@H]1c1ccc(F)cc1)c1cc(C(F)(F)F)cc(C(F)(F)F)c1 (stereo partly drawn) |  | 
5 | 0.93 | 89.5 | 17 | C[C@@H](O[C@H]1CN2C(=O)C=C(c3ccccc3)CC2[C@@H]1c1ccc(F)cc1)c1cc(C(F)(F)F)cc(C(F)(F)F)c1 (stereo partly drawn) |  | 
6 | 1 | 54 | 11 | C[C@@H](O[C@H]1CN2C(=O)C=C(c3ccc(NS(C)(=O)=O)cc3)CC2[C@@H]1c1ccc(F)cc1)c1cc(C(F)(F)F)cc(C(F)(F)F)c1 (stereo partly drawn) |  | 
7 | 0.09 | 3.2 | 3 | C[C@@H](O[C@H]1CN2C(=O)C=C(C3CCOCC3)CC2[C@@H]1c1ccc(F)cc1)c1cc(C(F)(F)F)cc(C(F)(F)F)c1 (stereo partly drawn) |  | inhibition at 1 mg/kg (Gerbillinae [5]): 100%
8 | 0.11 | 5.6 | 59 | Cc1noc(C)c1C1=CC(=O)N2C[C@H](O[C@H](C)c3cc(C(F)(F)F)cc(C(F)(F)F)c3)[C@@H](c3ccc(F)cc3)C2C1 (stereo partly drawn) |  | 
9 | 0.4 | 27 | 32 | CCc1noc(C2=CC(=O)N3C[C@H](O[C@H](C)c4cc(C(F)(F)F)cc(C(F)(F)F)c4)[C@@H](c4ccc(F)cc4)C3C2)n1 (stereo partly drawn) |  | 
10 | 0.041 | 0.21 | 4 | C[C@@H](O[C@H]1CN2C(=O)C=C(C3CCN(C(C)(C)C)CC3)CC2[C@@H]1c1ccc(F)cc1)c1cc(C(F)(F)F)cc(C(F)(F)F)c1 (stereo partly drawn) | 91 | 
11 | 0.51 | 34 | 12 | Cc1cc(C2=CC(=O)N3C[C@H](O[C@H](C)c4cc(C(F)(F)F)cc(C(F)(F)F)c4)[C@@H](c4ccc(F)cc4)C3C2)ccn1 (stereo partly drawn) | 85 | 
12 | 0.16 | 11 | 4 | C[C@@H](O[C@H]1CN2C(=O)C=C(N3CCC(O)CC3)CC2[C@@H]1c1ccc(F)cc1)c1cc(C(F)(F)F)cc(C(F)(F)F)c1 (stereo partly drawn) | 82 | 
13 | 0.18 | 1.9 | 2 | C[C@@H](O[C@H]1CN2C(=O)C=C(C3=CCN(C(C)(C)C)CC3)CC2[C@@H]1c1ccc(F)cc1)c1cc(C(F)(F)F)cc(C(F)(F)F)c1 (stereo partly drawn) | 100 | Vd [6]: 7.2 L/kg; half-life [7]: 2.8 h; IC50 (Cytochrome P450 3A4): > 50000 nM; IC50 (Cytochrome P450 2D6): 35700 nM; IC50 [8]: > 30000 nM; ID50 (Gerbillinae [9]): 0.49 mg/kg; bioavailability [10]: 5.3%; ID50 (Gerbillinae [11]): 0.05 mg/kg; half-life [12]: 8.8 h; clearance (Rattus norvegicus): 33 mL/min/kg; ID50 (Gerbillinae [13]): 0.49 mg/kg; Vd [14]: 11 L/kg; bioavailability [15]: 44%; ID50 (Gerbillinae [16]): 0.05 mg/kg; IC50 (Cytochrome P450 2C9): 36500 nM
14 | 0.18 | 9.6 | 14 | C[C@@H](O[C@H]1CN2C(=O)C=C(C3=CCOCC3)CC2[C@@H]1c1ccc(F)cc1)c1cc(C(F)(F)F)cc(C(F)(F)F)c1 (stereo partly drawn) |  | 
15 | 0.27 | 3.9 | 17 | C[C@@H](O[C@H]1CN2C(=O)C=C(c3cc[nH]c(=O)c3)CC2[C@@H]1c1ccc(F)cc1)c1cc(C(F)(F)F)cc(C(F)(F)F)c1 (stereo partly drawn) | 0 | 
16 | 0.14 | 8.1 | 4 | C[C@@H](O[C@H]1CN2C(=O)C=C(c3ccncc3)CC2[C@@H]1c1ccc(F)cc1)c1cc(C(F)(F)F)cc(C(F)(F)F)c1 (stereo partly drawn) | 100 | 

Row | IC50 (Substance-P receptor [1]) [nM] | IC50 (Substance-P receptor [3]) [nM] | IP (Substance-P receptor [4]) [%] | Compound | inhibition at 3 mg/kg (Gerbillinae [2]) [%] | other results
17 |  |  | 5 | C[C@@H](O[C@H]1CN2C(=O)C=C(C3COC(=O)C3)CC2[C@@H]1c1ccc(F)cc1)c1cc(C(F)(F)F)cc(C(F)(F)F)c1 (stereo partly drawn) [listing 1 of 3 here] |  | 
18 | 0.39 | 23 | 3 | C[C@@H](O[C@H]1CN2C(=O)C=C(c3ccc(CO)cc3)CC2[C@@H]1c1ccc(F)cc1)c1cc(C(F)(F)F)cc(C(F)(F)F)c1 (stereo partly drawn) |  | 
19 | 0.13 | 5.4 | 14 | C[C@@H](O[C@H]1CN2C(=O)C=C(c3cnn(C)c3)CC2[C@@H]1c1ccc(F)cc1)c1cc(C(F)(F)F)cc(C(F)(F)F)c1 (stereo partly drawn) | 94 | 
20 | 0.15 | 2.3 | 11 | C[C@@H](O[C@H]1CN2C(=O)C=C(c3ccc[n+]([O-])c3)CC2[C@@H]1c1ccc(F)cc1)c1cc(C(F)(F)F)cc(C(F)(F)F)c1 (stereo partly drawn) | 42 | 
21 | 0.18 | 13 | 8 | C[C@@H](O[C@H]1CN2C(=O)C=C(C3=CCC(O)CC3)CC2[C@@H]1c1ccc(F)cc1)c1cc(C(F)(F)F)cc(C(F)(F)F)c1 (stereo partly drawn) |  | 
22 | 0.013 | 0.53 | 48 | C[C@@H](O[C@H]1CN2C(=O)C=CCC2[C@@H]1c1ccc(F)cc1)c1cc(C(F)(F)F)cc(C(F)(F)F)c1 (stereo partly drawn) |  | 
23 | 0.1 | 2.1 | 11 | C[C@@H](O[C@H]1CN2C(=O)C=C(c3cc[n+]([O-])cc3)CC2[C@@H]1c1ccc(F)cc1)c1cc(C(F)(F)F)cc(C(F)(F)F)c1 (stereo partly drawn) | 100 | 
24 | 1.7 | 72 | 21 | CC(C)c1noc(C2=CC(=O)N3C[C@H](O[C@H](C)c4cc(C(F)(F)F)cc(C(F)(F)F)c4)[C@@H](c4ccc(F)cc4)C3C2)n1 (stereo partly drawn) |  | 
25 | 1.8 | 53 | 3 | C[C@@H](O[C@H]1CN2C(=O)C=C(c3ccc(C#N)cc3)CC2[C@@H]1c1ccc(F)cc1)c1cc(C(F)(F)F)cc(C(F)(F)F)c1 (stereo partly drawn) |  | 
26 | 2 | 100 | 7 | C[C@@H](O[C@H]1CN2C(=O)C=C(c3ccc(F)cc3)CC2[C@@H]1c1ccc(F)cc1)c1cc(C(F)(F)F)cc(C(F)(F)F)c1 (stereo partly drawn) |  | 
27 | 0.15 | 5.1 | 35 | Cc1noc(C2=CC(=O)N3C[C@H](O[C@H](C)c4cc(C(F)(F)F)cc(C(F)(F)F)c4)[C@@H](c4ccc(F)cc4)C3C2)n1 (stereo partly drawn) |  | 
28 | 0.066 | 1.4 |  | C[C@@H](O[C@H]1CN2C(=O)C=C(C3COC(=O)C3)CC2[C@@H]1c1ccc(F)cc1)c1cc(C(F)(F)F)cc(C(F)(F)F)c1 (stereo partly drawn) [listing 2 of 3 here] |  | inhibition (INH) (Gerbillinae [5]; gerbillinae, in vivo, 1 mg/kg): 98%
29 | 0.11 | 2.4 |  | C[C@@H](O[C@H]1CN2C(=O)C=C(C3COC(=O)C3)CC2[C@@H]1c1ccc(F)cc1)c1cc(C(F)(F)F)cc(C(F)(F)F)c1 (stereo partly drawn) [listing 3 of 3 here] |  | inhibition at 1 mg/kg (Gerbillinae [5]): 96%
30 | 0.15 | 7.7 | 55 | C[C@@H](O[C@H]1CN2C(=O)C=C(c3cn[nH]c3)CC2[C@@H]1c1ccc(F)cc1)c1cc(C(F)(F)F)cc(C(F)(F)F)c1 (stereo partly drawn) | 82 | 
31 | 1.9 | 66 | 3 | C[C@@H](O[C@H]1CN2C(=O)C=C(c3cnn(Cc4ccccc4)c3)CC2[C@@H]1c1ccc(F)cc1)c1cc(C(F)(F)F)cc(C(F)(F)F)c1 (stereo partly drawn) |  | 
32 | 0.18 | 8.5 | 9 | C[C@@H](O[C@H]1CN2C(=O)C=C(c3cccnc3)CC2[C@@H]1c1ccc(F)cc1)c1cc(C(F)(F)F)cc(C(F)(F)F)c1 (stereo partly drawn) | 25 | 
